Data as given in patent US20060058328A1, “Use of N-aryl diazaspiracyclic compounds in the treatment of addiction” (priority 2004, published 2006).

Assays:
[1] = biological target: α4β2 subtype (Homo sapiens, UniProt P17787+P43681); experiment: In vitro pharmacology: antagonism at the α4β2 subtype; format: biochemical
Excerpt: (§1) Such disorders include substance abuse, tobacco use and weight gain that accompanies drug cessation.

[2] = test system: NNR subtypes affecting dopamine release; experiment: Antagonism of dopamine release; format: biochemical; settings: in vitro
Procedure: Dopamine release was measured using the techniques described in U.S. Pat. No. 5,597,919 to Dull et al. Release is expressed as a percentage of release obtained with a concentration of (S)-(−)-nicotine resulting in maximal effects. Reported EC50 values are expressed in nM, and Emax values represent the amount released relative to (S)-(−)-nicotine on a percentage basis.
Antagonism of dopamine release can also be evaluated using the assays described in Gradyet al., “Characterization of nicotinic receptor mediated [3H]dopamine release from synaptosomes prepared from mouse striatum,” J. Neurochem. 59: 848-856 (1992) and Soliakov and Wonnacott, “Voltage-sensitive Ca^2+ channels involved in nicotinic receptor-mediated [3H]dopamine release from rat striatal synaptosomes,” J. Neurochem. 67:163-170 (1996).
as §1

[3] = test system: rats; experiment: Fourteen-day preclinical safety pharmacology study; format: in vivo

Sequence of α4β2 subtype (P43681 29-627 limits assumed): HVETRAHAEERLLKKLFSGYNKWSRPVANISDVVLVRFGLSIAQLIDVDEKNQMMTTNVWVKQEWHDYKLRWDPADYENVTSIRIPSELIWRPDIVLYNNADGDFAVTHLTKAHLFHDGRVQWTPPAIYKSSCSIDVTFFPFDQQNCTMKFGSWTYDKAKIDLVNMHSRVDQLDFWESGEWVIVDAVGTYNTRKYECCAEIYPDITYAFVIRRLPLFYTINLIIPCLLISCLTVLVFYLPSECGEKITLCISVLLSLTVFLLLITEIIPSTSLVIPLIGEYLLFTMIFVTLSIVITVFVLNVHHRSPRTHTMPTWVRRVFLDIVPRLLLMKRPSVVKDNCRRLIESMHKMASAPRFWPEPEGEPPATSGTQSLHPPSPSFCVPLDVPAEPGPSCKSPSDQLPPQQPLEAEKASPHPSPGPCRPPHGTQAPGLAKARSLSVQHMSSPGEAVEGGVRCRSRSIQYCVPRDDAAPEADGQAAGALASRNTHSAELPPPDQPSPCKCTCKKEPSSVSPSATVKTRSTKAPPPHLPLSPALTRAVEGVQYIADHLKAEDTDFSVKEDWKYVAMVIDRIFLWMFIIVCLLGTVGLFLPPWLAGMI
Sequence of α4β2 subtype (P17787 26-502): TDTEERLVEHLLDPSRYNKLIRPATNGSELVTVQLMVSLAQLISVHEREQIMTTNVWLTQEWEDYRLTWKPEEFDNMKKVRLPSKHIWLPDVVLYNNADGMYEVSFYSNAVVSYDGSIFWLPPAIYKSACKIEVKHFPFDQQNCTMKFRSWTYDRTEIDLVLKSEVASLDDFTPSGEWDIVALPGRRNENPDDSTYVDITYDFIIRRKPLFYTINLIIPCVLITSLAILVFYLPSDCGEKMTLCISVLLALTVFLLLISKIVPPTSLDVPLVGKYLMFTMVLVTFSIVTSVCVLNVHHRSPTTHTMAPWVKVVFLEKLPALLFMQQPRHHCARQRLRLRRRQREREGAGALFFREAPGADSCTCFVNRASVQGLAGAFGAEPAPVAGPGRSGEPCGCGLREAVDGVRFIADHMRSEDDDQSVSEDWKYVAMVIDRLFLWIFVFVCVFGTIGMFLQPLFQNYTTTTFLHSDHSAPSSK

Cl.Cl.c1cncc(N2CCC3(CCCN3)C2)c1 (stereo not drawn) [Sample 1, 7-(3-pyridyl)-1,7-diazaspiro[4.4]nonane dihydrochloride]
Imax, antagonist at the α4β2 subtype [1]: 50%
IC50 ([1]; read-out: IC50, antagonist at the α4β2 subtype): 193 µM
Imax, antagonist at NNR subtypes affecting dopamine release [2]: 67%
IC50 ([2]; read-out: IC50, antagonist at NNR subtypes affecting dopamine release): 0.901 µM
stimulant sensitization properties [3]: without demonstrating stimulant sensitization properties
weight gain in rats [3]: reduced weight gain
